The target in data set [1] is T1, rFel d 1 (Felis catus, UniProt P30438+P30440). The data set is described as follows: Competitive binding assay with the fluorescent probe 1-NPN. As to conditions: for IC50: 1 µM rFel d 1, 2 μM 1-NPN, 25 °C, 50 mM Tris-HCl pH 7.4, competitor 0–16 μM; for Kd: calculated from IC50 with K1-NPN […]. The arrangement: species or system cat. On the procedure:
Figure 2 Competitive binding of selected fatty acids (a) and steroids (b) to rFel d 1. […] Fluorescence of probe-protein complexes in the absence of a competitor was normalized to 100%.
(§1) N-Phenyl-1-naphthylamine (1-NPN) was used as a non-polar fluorescent probe in competitive binding experiments with the ligands (Sigma, France) to investigate binding efficiency of semiochemical analogs with pure rFel d 1 (INDOOR Biotechnologies, UK). The fluorescence experiments were performed on an FP-750 spectrofluorometer (JASCO, Japan) instrument at 25 °C in a right-angle configuration with a 1 cm light path fluorimeter quartz cuvette and 5-nm slits for both excitation and emission. The probe 1-NPN was excited at 337 nm and emission spectra were recorded between 380 and 450 nm, at 25 °C. The protein was dissolved in 50 mM Tris-HCl, pH 7.4, and ligands were added as 1 mM methanol solutions.
(§2) Semiochemicals were first screened for their capabilities to bind rFel d 1 using 1 µM of rFel d 1, 1 μM of 1-NPN, and 2 µM of a competitive ligand. […] IC50 was graphically determined from the dose–response curve of each competitor ligand.

For data set [2] the following is noted: ref PubChem and ChemSpider; cited from earlier work.
The target of data set [3] is T1, rFel d 1. Put plainly: 1-NPN displacement screening (fluorescence). It is filed as binding, cat. As to conditions: 1 µM rFel d 1, 1 μM 1-NPN, 2 µM competitive ligand. The procedure: as §1, §2
In data set [4] the target is T1, rFel d 1. The data set is described as follows: 1-NPN binding to rFel d 1 (fluorescence titration). More on the design: species or system cat.
Method: To a 1-µM solution of the protein in 50 mM Tris-HCl, pH 7.4, aliquots of 1 mM solution of 1-NPN in methanol were added to final concentrations of 1–20 µM. (a) The representative emission curves experimentally obtained. […] (b) The saturation binding curve obtained from the average of three experiments.
N-Phenyl-1-naphthylamine (1-NPN) was used as a non-polar fluorescent probe in competitive binding experiments with the ligands (Sigma, France) to investigate binding efficiency of semiochemical analogs with pure rFel d 1 (INDOOR Biotechnologies, UK) [30]. The fluorescence experiments were performed on an FP-750 spectrofluorometer (JASCO, Japan) instrument at 25 °C in a right-angle configuration with a 1 cm light path fluorimeter quartz cuvette and 5-nm slits for both excitation and emission. The probe 1-NPN was excited at 337 nm and emission spectra were recorded between 380 and 450 nm, at 25 °C. The protein was dissolved in 50 mM Tris-HCl, pH 7.4, and ligands were added as 1 mM methanol solutions.
The binding of 1-NPN to rFel d 1 was tested at two protein concentrations (1 µM and 2 µM) by titrating the protein solution with aliquots of a 1-mM solution of 1-NPN in methanol to final concentrations of 1–20 µM. The bound ligand was evaluated from the values of fluorescence intensity assuming that the protein was 100% active, with a stoichiometry of 1:1 protein: ligand. […]

Where two headings read alike, the source gives them in different places.

By IC50 is commonly meant the concentration needed to halve the response being measured.

T1 sequence (P30440 18-109): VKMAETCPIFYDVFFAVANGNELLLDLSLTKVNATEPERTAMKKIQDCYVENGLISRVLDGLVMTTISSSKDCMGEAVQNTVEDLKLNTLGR
T1 sequence (P30438 23-92): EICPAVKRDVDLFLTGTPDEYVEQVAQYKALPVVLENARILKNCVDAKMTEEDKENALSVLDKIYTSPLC

As to `CC(=O)[C@H]1CC[C@H]2[C@@H]3CCC4=CC(=O)CC[C@]4(C)[C@H]3CC[C@]12C` [Progesterone], in data set [1], the IC50 stood at 13.6 µM and the Kd is 10.5 µM. Besides, in data set [2], the “Topological Polar Surface Area” value is reported as 34.1 Å². In data set [3], the “1-NPN Displacement Screening” value is listed as “Yes”.

Regarding `c1ccc(Nc2cccc3ccccc23)cc1` [1-NPN, N-phenyl-1-naphthylamine, reference compound], the Kd was 5.8 µM in data set [4] (1 µM rFel d 1, 50 mM Tris-HCl pH 7.4, 1-NPN 1–20 µM, average of three experiments, read-out: dissociation constant of 1-NPN (GraphPad)) and 4.8 µM in data set [4] (1 µM rFel d 1, Scatchard plot, read-out: dissociation constant K1-NPN (Scatchard analysis)). Also, the “Topological Polar Surface Area” value in data set [2] was 12 Å².

With `CCCCCCCCCCCC=O` [Dodecanal], in data set [2], the “Topological Polar Surface Area” value is 17.1 Å². In data set [3], the “1-NPN Displacement Screening” value is reported as “No”.

For `C[C@]12CC[C@H]3[C@@H](CCC4=CC(=O)CC[C@@]43C)[C@@H]1CC[C@@H]2O` [Testosterone], the “Topological Polar Surface Area” value in data set [2] is reported as 37.3 Å². Further, in data set [3], the “1-NPN Displacement Screening” value is on record as “Yes”.

`CCCCC/C=C\C/C=C\CCCCCCCC(=O)O` [Linoleic acid]: in data set [1], the IC50 was found to be 10.1 µM and the Kd was 7.8 µM. Further, the “Topological Polar Surface Area” value in data set [2] was 37.3 Å². The “1-NPN Displacement Screening” value in data set [3] was “Yes”.

Consider `CC(=O)[C@@]1(O)CC[C@H]2[C@@H]3CCC4=CC(=O)CC[C@]4(C)[C@H]3CC[C@@]21C` [Hydroxyprogesterone], for which, in data set [2], the “Topological Polar Surface Area” value was 54.4 Å². Also, in data set [3], the “1-NPN Displacement Screening” value is recorded as “Yes”.

Turning to `CC12C=CCC1C1CCC3CC(=O)CCC3(C)C1CC2` (centres unmarked) [Androstenone], the IC50 in data set [1] (read-out: IC50) turned out to be 3.1 µM. Besides, in data set [1] (read-out: Kd), the Kd is 2.4 µM. Also, in data set [2], the “Topological Polar Surface Area” value is recorded as 17.1 Å². In data set [3], the “1-NPN Displacement Screening” value is listed as “Yes”.

`CC(C)C(=O)O` [Isobutyric acid]: the “Topological Polar Surface Area” value in data set [2] is listed as 37.3 Å².

In the case of `CCCCCCCCCCCCCCCC(N)=O` [Hexadecanamide], the “Topological Polar Surface Area” value in data set [2] is recorded as 43.1 Å².

Regarding `CCCCCCCC/C=C\CCCCCCCC(=O)O` [Oleic acid], in data set [1], the IC50 came out at 10 µM and the Kd is 7.7 µM. Besides, the “Topological Polar Surface Area” value in data set [2] was 37.3 Å². For the same molecule, in data set [3], the “1-NPN Displacement Screening” value is on record as “Yes”.

With `C[C@]12CC[C@@H](O)C[C@@H]1CC[C@@H]1[C@@H]2CC[C@]2(C)C=CC[C@@H]12` [Androstenol], the “Topological Polar Surface Area” value in data set [2] is 20.2 Å². Besides, the “1-NPN Displacement Screening” value in data set [3] is “No”.

For the molecule `C[C@]12CC[C@H](O)CC1=CC[C@@H]1[C@@H]2CC[C@]2(C)C(=O)CC[C@@H]12` [Dehydroepiandrosterone (DHEA), Dehydroepiandrosterone], the “Topological Polar Surface Area” value in data set [2] is on record as 37.3 Å². Besides, in data set [3], the “1-NPN Displacement Screening” value is “Yes”.

In the case of `CC(=O)[C@H]1CC[C@H]2[C@@H]3CC=C4C[C@@H](O)CC[C@]4(C)[C@H]3CC[C@]12C` [Pregnenolone], the IC50 in data set [1] (read-out: IC50) was determined as 13.1 µM. Also, the Kd in data set [1] (read-out: Kd) is 10.1 µM. In addition, the “Topological Polar Surface Area” value in data set [2] is listed as 37.3 Å². Also, the “1-NPN Displacement Screening” value in data set [3] is given as “Yes”.

Regarding `CCCCCCCCCCCCCCO` [Tetradecanol], the “Topological Polar Surface Area” value in data set [2] is 20.2 Å². Also, the “1-NPN Displacement Screening” value in data set [3] is listed as “No”.

Consider `CCCCCCCCCCCCCCCC(=O)OC` [Methyl Palmitate], for which the “Topological Polar Surface Area” value in data set [2] was 26.3 Å². Also, in data set [3], the “1-NPN Displacement Screening” value is recorded as “No”.

`C[C@]12CC[C@@H]3c4ccc(O)cc4CC[C@H]3[C@@H]1CCC2=O` [Estrone]: the “1-NPN Displacement Screening” value in data set [3] was “Yes”.

In the case of `CCCCCCCCCC(=O)O` [Capric acid], the “1-NPN Displacement Screening” value in data set [3] is reported as “No”.

For Deoxycorticosterone, the “Topological Polar Surface Area” value in data set [2] is recorded as 54.4 Å². For the same molecule, in data set [3], the “1-NPN Displacement Screening” value is given as “No”.

Consider `C[C@]12CCC(=O)C[C@@H]1CC[C@@H]1[C@@H]2CC[C@]2(C)[C@@H](O)CC[C@@H]12` [Dihydrotestosterone], for which the “Topological Polar Surface Area” value in data set [2] was 37.3 Å². In data set [3], the “1-NPN Displacement Screening” value is on record as “No”.

For `CCCCCCCCCCCCCC(=O)O` [Myristic acid], in data set [1], the IC50 was 14.4 µM and the Kd is 11.1 µM. Besides, the “Topological Polar Surface Area” value in data set [2] is listed as 37.3 Å². Besides, in data set [3], the “1-NPN Displacement Screening” value was “Yes”.

As for `C[C@]12CCC(=O)C=C1CC[C@@H]1[C@@H]2CC[C@]2(C)C(=O)CC[C@@H]12` [Androstenedione], in data set [2], the “Topological Polar Surface Area” value is listed as 34.1 Å². Further, in data set [3], the “1-NPN Displacement Screening” value was “Yes”.

On to `CCCCCCCCC(N)=O` [Nonanamide], for which, in data set [2], the “Topological Polar Surface Area” value is given as 43.1 Å².

For `CCCCCCCCCCCC(=O)OCC` [Ethyl Laurate], in data set [2], the “Topological Polar Surface Area” value is on record as 26.3 Å². For the same molecule, the “1-NPN Displacement Screening” value in data set [3] is on record as “No”.

Regarding `C[C@]12C[C@H](O)[C@H]3[C@@H](CCC4=CC(=O)CC[C@@]43C)[C@@H]1CC[C@@H]2C(=O)CO` [Corticosterone], in data set [2], the “Topological Polar Surface Area” value is 74.6 Å². In addition, in data set [3], the “1-NPN Displacement Screening” value is “No”.

`CCCCCCCCCCCCO` [Dodecanol]: the “Topological Polar Surface Area” value in data set [2] was 20.2 Å². For the same molecule, the “1-NPN Displacement Screening” value in data set [3] is recorded as “No”.

Regarding `CCCCCCCCCCCC(=O)O` [Lauric acid], in data set [1], the IC50 is 3.3 µM and the Kd was 2.6 µM. Further, in data set [2], the “Topological Polar Surface Area” value was 37.3 Å². For the same molecule, the “1-NPN Displacement Screening” value in data set [3] is reported as “Yes”.

With `CCCCCCCCCCCCCCCCCC(N)=O` [Octadecanamide], in data set [2], the “Topological Polar Surface Area” value is on record as 43.1 Å².

`C[C@]12CC[C@@H]3c4ccc(O)cc4CC[C@H]3[C@@H]1CC[C@@H]2O` [Estradiol]: the “Topological Polar Surface Area” value in data set [2] is recorded as 40.5 Å². In data set [3], the “1-NPN Displacement Screening” value is reported as “Yes”.

In the case of `CCCCCCCCCCCCCCCC(=O)O` [Palmitic acid], the “affinity to rFel d 1 in words” value in data set [1] (competitive binding with 1-NPN, among the fatty acids) is on record as “weakest ligand”. The “Topological Polar Surface Area” value in data set [2] is 37.3 Å². Moreover, the “1-NPN Displacement Screening” value in data set [3] is recorded as “Yes”.

Source of the values: article PMC7073184, “The Major Cat Allergen Fel d 1 Binds Steroid and Fatty Acid Semiochemicals: A Combined In Silico and In Vitro Study” (International Journal of Molecular Sciences, 2020).
